The text below walks through data of US20100216857A1, “METHOD OF TREATING MOTOR DISORDERS WITH 4-(1-(2,3-DIMETHYLPHENYL)ETHYL)-1H-IMIDAZOLE-2(3H)-THIONE” (priority 2007, published 2010).

Each structure is given as a SMILES string. Values joined by “and” are separate entries in the source; they are usually repeats but may differ in a detail not shown here. Equal values may be shown once. Marks after values point to notes of the source that are not given here.

Test [1] relates to Cocaine-induced Hyperlocomotion. Description: Cocaine-induced hyperlocomotion in the open field. The conditions noted are these: for % DECREASE ACTIVITY (relative to Vehicle+Cocaine) / TOTAL ACTIVITY POST-COCAINE (AUC): mice, 15 min before cocaine SC. The format is in vivo, mice. Here is the method: Drug 1 was administered 30 minutes after the animal was placed in the open field. Drug 2 was administered subcutaneously (SC) at 45 minutes after the animal was placed in the open field (15 minutes after drug 1). AUC indicates the total amount of locomotor activity after administration of drug 2. “% decrease activity” indicates the percentage decrease in total activity relative to the Vehicle+Cocaine group. ⋄ indicates significant difference (P≦0.05) relative to Vehicle+Cocaine treated animals. * indicates significant difference (P≦0.05) relative to Vehicle+Vehicle treated animals. Amphetamine- or cocaine-induced hyperactivity. Mice were placed in an open field apparatus (FlexField, San Diego Instruments, San Diego, Calif.). […] Total activity over each 5 minute bin (21 total bins) was added to establish activity curve over the 105 minute testing. For i.p. administration, the compounds are formulated in H2O with 0.5% DMSO and given in a volume of 1 ml/kg body weight by injecting into the intraperitoneal cavity. For p.o. administration, the compounds are formulated in H2O with 0.5% DMSO and given in a volume of 2 ml/kg body weight using a 25-gauge, 1.5 inch gavage needle that is slowly inserted through the esophagus into the stomach.

The test system of test [2] is Nigrostriatal-lesion-induced Rotational Behavior. The test is described as follows: Nigrostriatal-lesion-induced rotational behavior following amphetamine administration. It is filed as in vivo, rats. The conditions noted are these: for % DECREASE ROTATIONS (relative to Vehicle+Amphetamine): nigrostriatal-lesioned rats, 15 min before amphetamine SC. Here is the method: Table 3, below, indicates the changes in rotational behavior in nigrostriatal-lesioned rats treated with the compound of the invention and the psychostimulant amphetamine. Drug 1 was administered 15 minutes before amphetamine, and 10 minutes post-amphetamine, the animals were placed into the rotometer for 30 or 60 minutes. “% decrease rotations” indicates the percentage decrease in total rotations relative to the Vehicle+Amphetamine group. ⋄ indicates significant difference (P≦0.05) relative to Vehicle+Amphetamine treated animals. * indicates significant difference (P+0.05) relative to Vehicle+Vehicle treated animals.
Amphetamine-induced rotational behavior. Pre-Apomorphine-screened (rotated) rats (with lesions ≧95% DA cell loss) were purchased from Charles Rivers Laboratories. Animals were given ˜4 days to acclimate prior to testing. All animals weighted 250-300 g at the beginning of the study. Animals were treated with various combinations of vehicle or the compound of the invention and amphetamine.
Vehicle or the compound of the invention was administered (p.o.) 15 minutes before amphetamine (2 mg/kg s.c.). Rotational behavior was assessed 15 minutes post-amphetamine administration and was monitored for 60 minutes using a Rotometer system from San Diego Instruments (San Diego, Calif.).
For i.p. administration, the compounds are formulated in H2O with 0.5% DMSO and given in a volume of 1 ml/kg body weight by injecting into the intraperitoneal cavity. For p.o. administration, the compounds are formulated in H2O with 0.5% DMSO and given in a volume of 2 ml/kg body weight using a 25-gauge, 1.5 inch gavage needle that is slowly inserted through the esophagus into the stomach.

Test [3] relates to Amphetamine-induced Hyperlocomotion. Description: Amphetamine-induced hyperlocomotion in the open field. The format is in vivo, mice. The following applies: for % DECREASE ACTIVITY REL TO VEH + AMPH / TOTAL ACTIVITY POST-AMPHETAMINE (AUC): mice, 15 min before amphetamine SC. Here is the method:
Drug 1 was administered 30 minutes after the animal was placed in the open field. Drug 2 was administered subcutaneously (SC) at 45 minutes after the animal was placed in the open field (15 minutes after drug 1). AUC indicates the total amount of locomotor activity after administration of drug 2. “% decrease activity” indicates the percentage decrease in total activity relative to the Vehicle+Amphetamine group. ⋄ significant difference (P<0.05) relative to Vehicle+ Amphetamine treated animals. * indicates significant difference (P ≦0.05) relative to Vehicle+Vehicle treated animals. Amphetamine- or cocaine-induced hyperactivity. Mice were placed in an open field apparatus (FlexField, San Diego Instruments, San Diego, Calif.). […] Total activity over each 5 minute bin (21 total bins) was added to establish activity curve over the 105 minute testing. For i.p. administration, the compounds are formulated in H2O with 0.5% DMSO and given in a volume of 1 ml/kg body weight by injecting into the intraperitoneal cavity. For p.o. administration, the compounds are formulated in H2O with 0.5% DMSO and given in a volume of 2 ml/kg body weight using a 25-gauge, 1.5 inch gavage needle that is slowly inserted through the esophagus into the stomach.

The mark [4] stands for this setting: drug 1 at 0.1 mg/kg PO, 0.1 mg/kg.

Take `Cc1cccc(C(C)c2c[nH]c(=S)[nH]2)c1C` (centres unmarked) [Compound of the invention, 4-(1-(2,3-dimethylphenyl)ethyl)-1H-imidazole-2(3H)-thione]: the “inhibition of increased locomotion associated with psychostimulant administration (in words)” value in test [1] (cocaine-induced hyperactivity) and in test [3] (amphetamine-induced hyperactivity) was “effectively inhibit increased locomotion” throughout. For the same compound, the “% DECREASE ACTIVITY (relative to Vehicle+Cocaine)” value is recorded as 53%^⋄ in test [1] (drug 1 at 0.01 mg/kg PO), 31%* in test [1] (drug 1 at 0.03 mg/kg PO) and 64%^⋄ in test [1] (drug 1 at 0.1 mg/kg PO). The entries for the “TOTAL ACTIVITY POST-COCAINE (AUC)” value in test [1] (drug 1 at 0.01 mg/kg PO), in test [1] (drug 1 at 0.03 mg/kg PO) and in test [1] (drug 1 at 0.1 mg/kg PO) were 4904 ± 1832.1, 7260.8 ± 1756.5 and 3754.3 ± 1281.9, respectively. Further, in test [2] (nigrostriatal-lesioned animals), the “inhibition of amphetamine-induced rotational behavior (in words)” value was “inhibit amphetamine-induced rotational behavior”. Besides, the “% DECREASE ROTATIONS (relative to Vehicle+Amphetamine)” value is on record as 68%^⋄ in test [2] (drug 1 at 0.03 mg/kg PO), 68%^⋄ in test [2] (drug 1 at 0.1 mg/kg PO) and 46%^⋄* in test [2] (drug 1 at 1 mg/kg PO). Besides, the “% DECREASE ACTIVITY REL TO VEH + AMPH” value in test [3] (drug 1 at 0.01 mg/kg PO) is 32%*; in test [3] (drug 1 at 0.03 mg/kg PO) it was 72%^⋄; in test [3] (setting [4]), 63%^⋄ and 72%^⋄. Further, the “TOTAL ACTIVITY POST-AMPHETAMINE (AUC)” value in test [3] (drug 1 at 0.01 mg/kg PO) is 9093.3 ± 983.8; in test [3] (drug 1 at 0.03 mg/kg PO), 3783.3 ± 214.2; in test [3] (setting [4]), 5036.0 ± 654.2 and 3759.1 ± 685.4.

Regarding `O=C(CCCN1CCC(O)(c2ccc(Cl)cc2)CC1)c1ccc(F)cc1` [Haloperidol, reference compound], in test [3] (drug 1 at 0.2 mg/kg IP), the “% DECREASE ACTIVITY REL TO VEH + AMPH” value came to 91%^⋄* and the “TOTAL ACTIVITY POST-AMPHETAMINE (AUC)” value was determined as 1123.16 ± 280.11.
